# Laboratory results as given in EP0183129A1, “Quinolonecarboxylic acid derivatives” (KYORIN PHARMACEUTICAL CO., LTD., priority 1984, dated 1986).
# Read-outs that look alike come from different tables or passages of the source.
# How the values were obtained:
# B. fragilis 25285 = assay: In vitro antibacterial activity, MIC (standard strain); assay type: cell-based, Bacteroides fragilis; conditions: Bacteroides fragilis, 25285, B. fragilis 25285; 10^6 cells/ml; standard strain; read-out: MIC
# [1] = test system: Morganella morganii IID 602; assay: as above; assay type: cell-based; conditions: IID602; Morganella morganii IID 602; 10^6 cells/ml; standard strain; read-out: MIC
# S. agalactiae 4368 = assay: In vitro antibacterial activity, MIC (clinical isolates); assay type: cell-based; conditions: Streptococcus agalactiae; S. agalactiae 4368; 10^6 cells/ml; clinical isolate; read-out: MIC
# S. pneumoniae 2950 = assay: as above; assay type: cell-based; conditions: Streptococcus pneumoniae; S. pneumoniae 2950; 10^6 cells/ml; clinical isolate; read-out: MIC
# S. epidermidis IID 866 = assay: In vitro antibacterial activity, MIC (standard strain); assay type: cell-based; conditions: Staphylococcus epidermidis
# [2] = test system: S. aureus IID 670 (Terajima); assay: as above; assay type: cell-based, Staphylococcus aureus; conditions: Staphylococcus aureus
# P. mirabilis IID 994 = assay: as above; assay type: cell-based; conditions: Proteus mirabilis, IID994
# [3] = test system: Enterobacter cloacae IID 977; assay: as above; assay type: cell-based; conditions: Enterobacter cloacae, IID977, Enterobacter cloacae IID 977; 10^6 cells/ml; standard strain; read-out: MIC
# E. coli ATCC 10536 = assay: as above; assay type: cell-based; conditions: Escherichia coli, ATCC10536
# [4] = test system: Staphylococcus aureus 209 P; assay: as above; assay type: cell-based
# S. pyogenes 4372 = assay: In vitro antibacterial activity, MIC (clinical isolates); assay type: cell-based; conditions: Streptococcus pyogenes; S. pyogenes 4372; 10^6 cells/ml; clinical isolate; read-out: MIC
# S. agalactiae 4394 = assay: as above; assay type: cell-based; conditions: Streptococcus agalactiae; S. agalactiae 4394; 10^6 cells/ml; clinical isolate; read-out: MIC
# [5] = test system: Acinetobacter anitratus IID 876; assay: In vitro antibacterial activity, MIC (standard strain); assay type: cell-based; conditions: Acinetobacter calcoaceticus, IID876, Acinetobacter anitratus IID 876; 10^6 cells/ml; standard strain; read-out: MIC
# S. pneumoniae 2054 = assay: In vitro antibacterial activity, MIC (clinical isolates); assay type: cell-based; conditions: Streptococcus pneumoniae; S. pneumoniae 2054; 10^6 cells/ml; clinical isolate; read-out: MIC
# C. ramosum = assay: In vitro antibacterial activity, MIC (standard strain); assay type: cell-based; conditions: Thomasclavelia ramosa; C. ramosum; 10^6 cells/ml; standard strain; read-out: MIC
# [6] = test system: Serratia marcescens IID 618; assay: as above; assay type: cell-based; conditions: Serratia marcescens, IID618, Serratia marcescens IID 618; 10^6 cells/ml; standard strain; read-out: MIC
# S. pyogenes 3102 = assay: In vitro antibacterial activity, MIC (clinical isolates); assay type: cell-based; conditions: Streptococcus pyogenes; S. pyogenes 3102; 10^6 cells/ml; clinical isolate; read-out: MIC
# S. agalactiae 4049 = assay: as above; assay type: cell-based; conditions: Streptococcus agalactiae; S. agalactiae 4049; 10^6 cells/ml; clinical isolate; read-out: MIC
# [7] = test system: Proteus vulgaris IFO 3167; assay: In vitro antibacterial activity, MIC (standard strain); assay type: cell-based; conditions: IFO3167
# [8] = test system: Salmonella entritidis IID 604; assay: as above; assay type: cell-based; conditions: IID604; Salmonella entritidis IID 604; 10^6 cells/ml; standard strain; read-out: MIC
# [9] = test system: Bacteroides fragilis GM 7000; assay: as above; assay type: cell-based; conditions: GM7000; Bacteroides fragilis GM 7000; 10^6 cells/ml; standard strain; read-out: MIC
# S. faecalis 401 = assay: In vitro antibacterial activity, MIC (clinical isolates); assay type: cell-based; conditions: Enterococcus faecalis; S. faecalis 401; 10^6 cells/ml; clinical isolate; read-out: MIC
# P. aeruginosa IID 1210 = assay: In vitro antibacterial activity, MIC (standard strain); assay type: cell-based; conditions: Pseudomonas aeruginosa, IID1210; P. aeruginosa IID 1210; 10^6 cells/ml; standard strain; read-out: MIC
# S. pyogenes 3107 = assay: In vitro antibacterial activity, MIC (clinical isolates); assay type: cell-based; conditions: Streptococcus pyogenes; S. pyogenes 3107; 10^6 cells/ml; clinical isolate; read-out: MIC
# [10] = test system: Clostridium perfringens KYA 13123; assay: microbe, parasite or virus in culture; assay type: cell-based; conditions: KYA13123
# S. pneumoniae IID 552 = assay: In vitro antibacterial activity, MIC (standard strain); assay type: cell-based; conditions: Streptococcus pneumoniae, IID552; S. pneumoniae IID 552; 10^6 cells/ml; standard strain; read-out: MIC
# S. agalactiae 4470 = assay: In vitro antibacterial activity, MIC (clinical isolates); assay type: cell-based; conditions: Streptococcus agalactiae; S. agalactiae 4470; 10^6 cells/ml; clinical isolate; read-out: MIC
# [11] = test system: Bacillus subtilis PCI 219; assay: In vitro antibacterial activity, MIC (standard strain); assay type: cell-based; conditions: PCI219
# [12] = test system: Pseudomonas aeruginosa V-1; assay: as above; assay type: cell-based; conditions: V1; Pseudomonas aeruginosa V-1; 10^6 cells/ml; standard strain; read-out: MIC
# S. faecalis 214 = assay: In vitro antibacterial activity, MIC (clinical isolates); assay type: cell-based; conditions: Enterococcus faecalis; S. faecalis 214; 10^6 cells/ml; clinical isolate; read-out: MIC
# S. pneumoniae 15 = assay: as above; assay type: cell-based; conditions: Streptococcus pneumoniae; S. pneumoniae 15; 10^6 cells/ml; clinical isolate; read-out: MIC
# [13] = IID866, S. epidermidis IID 866, 10^6 cells/ml, standard strain, read-out: MIC
# [14] = IID670, S. aureus IID 670 (Terajima), 10^6 cells/ml, standard strain, read-out: MIC
# [15] = P. mirabilis IID 994, 10^6 cells/ml, standard strain, read-out: MIC
# [16] = E. coli ATCC 10536, 10^6 cells/ml, standard strain, read-out: MIC
# [17] = Staphylococcus aureus 209 P, 10^6 cells/ml, standard strain, read-out: MIC
# [18] = Proteus vulgaris IFO 3167, 10^6 cells/ml, standard strain, read-out: MIC
# [19] = Bacillus subtilis PCI 219, 10^6 cells/ml, standard strain, read-out: MIC
SMILES,MIC (B. fragilis 25285) [µg/mL],MIC [1] [µg/mL],MIC (S. agalactiae 4368) [µg/mL],MIC (S. pneumoniae 2950) [µg/mL],MIC [3] [µg/mL],MIC (S. pyogenes 4372) [µg/mL],MIC (S. agalactiae 4394) [µg/mL],MIC [5] [µg/mL],MIC (S. pneumoniae 2054) [µg/mL],MIC (C. ramosum) [µg/mL],MIC [6] [µg/mL],MIC (S. pyogenes 3102) [µg/mL],MIC (S. agalactiae 4049) [µg/mL],MIC [8] [µg/mL],MIC [9] [µg/mL],MIC (S. faecalis 401) [µg/mL],MIC (P. aeruginosa IID 1210) [µg/mL],MIC (S. pyogenes 3107) [µg/mL],MIC [10] [µg/mL],MIC (S. pneumoniae IID 552) [µg/mL],further results
"NCC1CCN(c2c(F)cc3c(=O)c(C(=O)O)cn(C4CC4)c3c2Br)C1 (stereo not drawn) [Example 15, 7-(3-Aminomethyl-l-pyrrolidinyl)-8-bromo-l-cyclopropyl-6-fluoro-1,4-dihydro-4-oxo-3-quinolinecarboxylic acid]",≤ 0.05,0.1,0.05,0.05,0.05,0.05,0.2,0.05,0.1,0.39,0.1,0.05,0.05,0.025,0.1,0.2,0.78,0.05,0.1,0.05,"MIC (S. epidermidis IID 866; IID866): 0.0125 µg/mL; MIC ([2]; IID670): 0.0125 µg/mL; MIC (P. mirabilis IID 994): 0.0125 µg/mL; MIC (E. coli ATCC 10536): 0.0125 µg/mL; MIC ([4]; Staphylococcus aureus, 209P): 0.0125 µg/mL; MIC ([7]; Proteus vulgaris): 0.0125 µg/mL; MIC (S. agalactiae 4470): 0.05 µg/mL; MIC ([11]; Bacillus subtilis): 0.0125 µg/mL; MIC [12]: 0.1 µg/mL; MIC (S. faecalis 214): 0.2 µg/mL; MIC (S. pneumoniae 15): 0.05 µg/mL"
"CNCC1CCN(c2c(F)cc3c(=O)c(C(=O)O)cn(C4CC4)c3c2Br)C1 (stereo not drawn) [Example 16, 8-Bromo-1-cyclopropyl-6-fluoro-1,4-dihydro-7-(3-methylaminomethyl-l-pyrrolidinyl)-4-oxo-3-quinolinecarboxylic acid]",0.1,0.1,0.05,0.05,0.1,0.05,0.1,0.05,0.05,0.39,0.1,0.05,0.05,0.05,0.2,0.1,1.56,0.05,0.1,0.05,"MIC (S. epidermidis IID 866; [13]): 0.025 µg/mL; MIC [2, 14]: 0.025 µg/mL; MIC (P. mirabilis IID 994; [15]): 0.025 µg/mL; MIC (E. coli ATCC 10536; [16]): 0.025 µg/mL; MIC [4, 17]: 0.0125 µg/mL; MIC [7, 18]: 0.025 µg/mL; MIC (S. agalactiae 4470): 0.05 µg/mL; MIC [11, 19]: 0.0125 µg/mL; MIC [12]: 0.2 µg/mL; MIC (S. faecalis 214): 0.1 µg/mL; MIC (S. pneumoniae 15): 0.05 µg/mL"
"CCNCC1CCN(c2c(F)cc3c(=O)c(C(=O)O)cn(C4CC4)c3c2Br)C1 (stereo not drawn) [Example 17, 8-Bromo-l-cyclopropyl-7-(3-ethylaminomethyl-l-pyrrolidinyl)-6-fluoro-1,4-dihydro-4-oxo-3-quinolinecarboxylic acid]",≤ 0.05,0.2,0.05,0.05,0.1,0.05,0.1,0.05,0.05,0.39,0.1,0.05,0.05,0.1,0.1,0.1,1.56,0.05,0.1,0.05,"MIC (S. epidermidis IID 866; [13]): 0.025 µg/mL; MIC [2, 14]: 0.025 µg/mL; MIC (P. mirabilis IID 994; [15]): 0.025 µg/mL; MIC (E. coli ATCC 10536; [16]): 0.025 µg/mL; MIC [4, 17]: 0.0125 µg/mL; MIC [7, 18]: 0.025 µg/mL; MIC (S. agalactiae 4470): 0.05 µg/mL; MIC [11, 19]: 0.0125 µg/mL; MIC [12]: 0.39 µg/mL; MIC (S. faecalis 214): 0.1 µg/mL; MIC (S. pneumoniae 15): 0.05 µg/mL"
